In patent US20170151204A1 (priority 2011, published 2017):
Entries after “also recorded” stand apart in the source; their conditions may differ.

Legend:
human neutrophils [1] = assay: TLR mRNA expression by human neutrophils (RT-PCR); assay type: cell-based; conditions: LTB4 100 nM or 1 μM, two hours
Method: Peripheral blood neutrophils or peripheral blood mononuclear cells were isolated from healthy donors and were purified by centrifugation over Ficoll™ separation medium gradient as already described (Larochelle B, Blood. 1998;92:291-299). Human neutrophils (2×10^6) were resuspended in culture medium and stimulated with a placebo solution (0.45% w/v NaCl containing 0.25% w/v dextrose, NS) or LTB4 (100 nM or 1 μM in placebo solution) for two hours. Following stimulation, total RNA was extracted and RT-PCR was performed using specific primers for human TLR2 (FIG. 1) and TLR7-9 (FIG. 3).

human neutrophils [2] = assay: TLR2 protein expression on human neutrophils (flow cytometry); assay type: cell-based; conditions: LTB4 100 nM, 15-120 min, flow cytometry (FIG. 2)
Method: In FIG. 2A, cells were left untreated (1) or were stimulated with LTB4 (100 nM) for 15 (2), 30 (3), 60 (4) or 120 min (5). Cells were then fixed in paraformaldehyde and TLR2 expression was assessed by flow cytometry. Background cellular autofluorescence is represented by the dotted line (6).

human neutrophils [3] = assay: TLR9 protein expression by human neutrophils (flow cytometry); assay type: cell-based
Method: (§1) In FIG. 4A, cells were left untreated (dotted line) or were stimulated with LTB4 (100 nM) for 15, 30, 60 or 120 min. Background cellular autofluorescence is represented by shaded histogram. Cells were then fixed in paraformaldehyde, permeabilized in methanol, and TLR9 expression was assessed by flow cytometry. In FIG. 4B, cells were pre-treated for 30 min with the high affinity LTB4 receptor antagonist U75302 (10 μM) prior to stimulation with LTB4 for 60 min. Cells were then fixed in paraformaldehyde, permeabilized in methanol, and TLR9 expression was assessed by flow cytometry. In FIGS. 4C-D, cells were stimulated with LTB4 or leukotrienes C4 (LTC4), leukotriene D4 (LTD4), the complement protein C5a or IL-8 for 60 min. Cells were then fixed in paraformaldehyde, permeabilized in methanol, and TLR9 expression was assessed by flow cytometry. In FIG. 4E, neutrophils were pretreated with LTB4 for 60 min. Following this pretreatment, neutrophils were incubated in the presence of CpG-ODN 2216 sequence (5′-G*G*GGGACGATCGTCG*G* G*G*G*G*-3′) (SEQ ID NO:1) that were tagged with cyanine-3 (Cy3) fluorochrome. After an incubation for 4 h with Cy3-CpG-ODN sequences, neutrophils were extensively washed with phosphate buffer and Cy3 expression (corresponding to the degree in CpG-ODN binding on human neutrophils) was assessed by flow cytometry. […]. […]

human neutrophils [4] = assay: Cy3-CpG-ODN binding assay on human neutrophils (flow cytometry); assay type: cell-based; conditions: LTB4 pretreatment 60 min, then Cy3-CpG-ODN 2216 for 4 h; with or without inhibitory CpG-ODN (FIG. 4E-F)
Method: as §1

RIG-I = assay: RIG-I-dependent promoter activation assay (luciferase) in BLT1-expressing HEK-293T cells; assay type: cell-based; conditions: RIG-I-expressing vector
IPS-1 = assay: IPS-1-dependent promoter activation assay (luciferase) in BLT1-expressing HEK-293T cells; assay type: cell-based; conditions: IPS-1-expressing vector
[5] = tested on: mouse embryonic fibroblasts (MEFs); assay: IFNβ secretion by wild type mouse embryonic fibroblasts; assay type: cell-based; conditions: MEFs from wild type mice, LTB4 alone or with Sendai virus (FIG. 36)
[6] = tested on: mouse embryogenic fibroblasts (MEF); assay type: cell-based; conditions: uninfected MEF, 6 hours, NacMDP 0.1, 1 and 10 μg/ml, LTB4 100 nM (FIG. 37)
IAV-infected MEF = assay type: cell-based, mouse
[7] = tested on: Influenza A/PR/8/34 H1N1 (IAV); assay type: cell-based; conditions: MEF, IAV 0.1 m.o.i., 24 hours, LTB4 100 nM, NacMDP 0.1 μg/ml (FIG. 39)
[8] = tested on: Influenza A/PR/8/34 H1N1 (IAV); assay: IAV-infected mice: lung viral load, IL-6 and histology; assay type: in vivo; conditions: 50 pfu IAV intranasally; iv. daily for three days, LTB4 1 μg/kg, NacMDP 2 mg/kg; four days post-infection (FIG. 40)
Method: In FIG. 39, MEFs were generated and plated as described in Example VII. Cells were infected with IAV (0.1 m.o.i.) alone (−), LTB4 alone (100 nM) or with a combination of LTB4 and NacMDP (0.1 μg/ml) for 24 hours. Following infection, cell culture supernatants were harvested and assayed for viral load determination by standard plaque assay in MDCK cells. For in vivo assessment of the antiviral activity of LTB4 and NacMDP, 4-6 weeks old C57131/6 female mice (n=4/group) were infected intranasally (in.) with 50 plaque-forming units (pfu) of IAV (FIG. 40). Starting at day one post-infection, mice were treated daily for three days with either saline, LTB4 alone (1 μg/kg) or with a combination of LTB4 and NacMDP (2 mg/kg), via the intravenous (iv.) route. Four days post-infection, animals were sacrificed and viral loads were determined from triturated lungs by standard plaque assay in MDCK cells. […] In FIG. 39, * p≦0.05. […]
To further investigate the in vivo consequences associated with the treatment of IAV-infected mice with a combination of LTB4 and the NOD2 agonist NacMDP, 4-6 weeks old C57131/6 female mice (n=4/group) were infected as described in Example IX and treated with either saline or a combination of LTB4 and NacMDP also as described. In FIG. 41, four-day infected animals were sacrificed and IL-6 titers were determined from triturated lungs by ELISA. […]

CCCCC/C=C\C[C@@H](O)/C=C/C=C/C=C\[C@@H](O)CCCC(=O)O [LTB4, 5S,12R-6,8,10,14(Z,E,E,Z)-eicosatetraenoic acid]
expression of TLR2 mRNA (human neutrophils [1]; RT-PCR (FIG. 1)): stimulated by LTB4 in a dose-dependent form | mRNA expression of TLR7-9 (human neutrophils [1]; RT-PCR (FIG. 3)): stimulated in a dose-dependent form | TLR2 expression (protein) (human neutrophils [2]): enhanced TLR2 expression; also recorded: upregulated TLR2 and TLR9 protein expression | TLR9 expression compared to LTC4, LTD4, C5a and IL-8 (human neutrophils [3]; 60 min stimulation (FIG. 4C-D)): potent inducer of TLR9 expression | TLR9 expression (protein) (human neutrophils [3]; LTB4 100 nM, 15, 30, 60 or 120 min, with or without BLT1 antagonist U75302 10 μM (FIG. 4A-B)): induces TLR9 expression on human neutrophils in a time-dependent manner; also recorded: upregulated TLR2 and TLR9 protein expression | CpG-ODN binding on human neutrophils (Cy3 expression) (human neutrophils [4]): enhances CpG-ODN binding on human neutrophils in a TLR9-dependent manner | NF-κB promoter activity (luciferase) (RIG-I; LTB4 stimulation 24 h (FIG. 28)): enhances NF-κB as well as IFN-β promoter activity | IFN-β promoter activity (luciferase) (RIG-I; LTB4 stimulation 24 h (FIG. 29)): enhances NF-κB as well as IFN-β promoter activity | NF-κB promoter activity (luciferase) (IPS-1; LTB4 stimulation 24 h (FIG. 30)): induces NF-κB as well as IFN-β promoter activity | IFN-β promoter activity (luciferase) (IPS-1; LTB4 stimulation 24 h (FIG. 31)): induces NF-κB as well as IFN-β promoter activity | secretion of IFNβ [5]: induces secretion of IFNβ | IL-6 secretion [6]: do not induce significant IL-6 secretion compared to background | IL-6 secretion (IAV-infected MEF): significantly enhance IL-6 secretion | viral load (in vitro) [7]: significant decrease in viral load | viral load in lungs (in vivo) [8]: significant decrease in viral load

CC(=O)N[C@H]1C(O)O[C@H](CO)[C@@H](O)[C@@H]1O[C@H](C)C(=O)N[C@@H](C)C(=O)N[C@H](CCC(=O)O)C(N)=O (some centres unmarked) [NacMDP, N-acetyl muramyl dipeptide, reference compound]
IL-6 secretion [6]: do not induce significant IL-6 secretion compared to background | IL-6 secretion (IAV-infected MEF): significantly enhance IL-6 secretion
